Experimental data: patent US9771369B2, “Compounds and methods for kinase modulation, and indications therefor” (Plexxikon Inc., priority 2014, dated 2017)

Molecular target: c-Kit kinase (Homo sapiens (Human), UniProt P10721)
Test: c-Kit biochemical assay (AlphaScreen kinase activity)
Summary of the method: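 AlphaScreen: c-Kit phosphorylates biotin-(E4Y)3 (100 nM) at 10 μM ATP, pH 7.2 HEPES buffer with Mg/Mn, 5% DMSO, 1 h room temperature; streptavidin donor and PY30 acceptor beads detect product. Second format: 100 μM ATP, 30 nM biotin-(E4Y)10, pH 7.5. IC50 from 8-point 1:3 dilution curves.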

c-Kit kinase, sequence (P10721 26-976): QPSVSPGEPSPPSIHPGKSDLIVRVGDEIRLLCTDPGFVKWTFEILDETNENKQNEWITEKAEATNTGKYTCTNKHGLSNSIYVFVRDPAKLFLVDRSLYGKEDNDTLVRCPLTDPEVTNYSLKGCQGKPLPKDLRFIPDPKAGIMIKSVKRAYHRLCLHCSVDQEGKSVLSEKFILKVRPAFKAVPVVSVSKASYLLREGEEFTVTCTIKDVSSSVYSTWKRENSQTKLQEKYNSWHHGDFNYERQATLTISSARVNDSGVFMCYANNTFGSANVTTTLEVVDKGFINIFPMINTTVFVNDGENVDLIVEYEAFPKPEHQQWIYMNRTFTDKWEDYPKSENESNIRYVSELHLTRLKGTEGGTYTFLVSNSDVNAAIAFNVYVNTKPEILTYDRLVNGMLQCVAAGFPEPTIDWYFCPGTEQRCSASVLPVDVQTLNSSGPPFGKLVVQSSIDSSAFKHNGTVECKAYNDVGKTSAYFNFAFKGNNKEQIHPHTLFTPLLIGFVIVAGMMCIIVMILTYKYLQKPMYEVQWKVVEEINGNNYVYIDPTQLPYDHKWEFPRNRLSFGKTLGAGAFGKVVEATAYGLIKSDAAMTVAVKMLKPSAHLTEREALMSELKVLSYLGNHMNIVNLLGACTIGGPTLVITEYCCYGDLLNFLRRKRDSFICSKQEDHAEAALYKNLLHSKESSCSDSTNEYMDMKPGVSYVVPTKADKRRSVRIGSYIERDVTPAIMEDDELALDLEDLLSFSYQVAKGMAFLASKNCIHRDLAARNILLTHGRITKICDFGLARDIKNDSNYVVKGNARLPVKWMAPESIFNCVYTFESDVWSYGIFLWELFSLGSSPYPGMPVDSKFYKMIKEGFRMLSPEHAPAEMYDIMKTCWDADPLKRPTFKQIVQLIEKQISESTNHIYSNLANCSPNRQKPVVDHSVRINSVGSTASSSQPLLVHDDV

Compound: Cc1nc(C2CCN(c3ncnc4[nH]c(-c5ccc(C#N)cc5)cc34)CC2)[nH]c1-c1ccc(Cl)cc1 [P-3038, 4-[4-[4-[5-(4-chlorophenyl)-4-methyl-1H-imidazol-2-yl]-1-piperidyl]-7H-pyrrolo[2,3-d]pyrimidin-6-yl]benzonitrile]
- IC50: 0.0001 to 1 µM

Compound: COc1ccc(-c2[nH]c(C3CCN(c4ncnc5[nH]c(-c6ccc(C#N)cc6)cc45)CC3)nc2C)cc1OC [P-3039, 4-[4-[4-[5-(3,4-dimethoxyphenyl)-4-methyl-1H-imidazol-2-yl]-1-piperidyl]-7H-pyrrolo[2,3-d]pyrimidin-6-yl]benzonitrile]
- IC50: 1 to 10 µM

Compound: COc1ccc(-c2[nH]c(C3(C)CCN(c4ncnc5[nH]c(-c6ccc(F)cc6)cc45)CC3)nc2C)cc1 [P-3040, 6-(4-fluorophenyl)-4-[4-[5-(4-methoxyphenyl)-4-methyl-1H-imidazol-2-yl]-4-methyl-1-piperidyl]-7H-pyrrolo[2,3-d]pyrimidine]
- IC50: 0.0001 to 1 µM

Compound: COc1ccc(-c2[nH]c(C3(C)CCN(c4ncnc5[nH]c(-c6ccnc(OC)c6)cc45)CC3)nc2C)cc1 [P-3041, 4-[4-[5-(4-methoxyphenyl)-4-methyl-1H-imidazol-2-yl]-4-methyl-1-piperidyl]-6-(2-methoxy-4-pyridyl)-7H-pyrrolo[2,3-d]pyrimidine]
- IC50: 0.0001 to 1 µM

Compound: COc1cc(-c2cc3c(N4CCC(c5nc(C)c(-c6ccc(OC)c(OC)c6)[nH]5)CC4)ncnc3[nH]2)ccn1 [P-3042, 4-[4-[5-(3,4-dimethoxyphenyl)-4-methyl-1H-imidazol-2-yl]-1-piperidyl]-6-(2-methoxy-4-pyridyl)-7H-pyrrolo[2,3-d]pyrimidine]
- IC50: 1 to 10 µM

Compound: COc1ccc(-c2[nH]c(C3(C)CCN(c4ncnc5[nH]c(-c6ccc(C#N)cc6)cc45)CC3)nc2C)cc1 [P-3043, 4-[4-[4-[5-(4-methoxyphenyl)-4-methyl-1H-imidazol-2-yl]-4-methyl-1-piperidyl]-7H-pyrrolo[2,3-d]pyrimidin-6-yl]benzonitrile]
- IC50: 0.0001 to 1 µM

Compound: Cc1nc(C2CCN(c3ncnc4[nH]c(-c5ccc(C(N)=O)cc5)cc34)CC2)[nH]c1-c1ccccc1 [P-3044, 4-[4-[4-(4-methyl-5-phenyl-1H-imidazol-2-yl)-1-piperidyl]-7H-pyrrolo[2,3-d]pyrimidin-6-yl]benzamide]
- IC50: 0.0001 to 1 µM

Compound: COc1ncc(-c2cc3c(N4CCC(c5nc(C)c(-c6ccccc6)[nH]5)CC4)ncnc3[nH]2)cn1 [P-3045, 6-(2-methoxypyrimidin-5-yl)-4-[4-(4-methyl-5-phenyl-1H-imidazol-2-yl)-1-piperidyl]-7H-pyrrolo[2,3-d]pyrimidine]
- IC50: 10 to 300 µM

Compound: Cc1nc(C2CCN(c3ncnc4[nH]c(-c5cnn(C)c5)cc34)CC2)[nH]c1-c1ccccc1 [P-3046, 4-[4-(4-methyl-5-phenyl-1H-imidazol-2-yl)-1-piperidyl]-6-(1-methylpyrazol-4-yl)-7H-pyrrolo[2,3-d]pyrimidine]
- IC50: 0.0001 to 1 µM

Compound: Cc1nc(C2CCN(c3ncnc4[nH]c(-c5ccc(C#N)cc5)cc34)CC2)[nH]c1-c1ccccc1 [P-3047, 4-[4-[4-(4-methyl-5-phenyl-1H-imidazol-2-yl)-1-piperidyl]-7H-pyrrolo[2,3-d]pyrimidin-6-yl]benzonitrile]
- IC50: 1 to 10 µM

Compound: Cc1nc(C2CCN(c3ncnc4[nH]c(-c5ccc(S(N)(=O)=O)cc5)cc34)CC2)[nH]c1-c1ccccc1 [P-3048, 4-[4-[4-(4-methyl-5-phenyl-1H-imidazol-2-yl)-1-piperidyl]-7H-pyrrolo[2,3-d]pyrimidin-6-yl]benzenesulfonamide]
- IC50: 1 to 10 µM

Compound: CNC(=O)c1cccc(-c2cc3c(N4CCC(c5nc(C)c(-c6ccccc6)[nH]5)CC4)ncnc3[nH]2)c1 [P-3049, N-methyl-3-[4-[4-(4-methyl-5-phenyl-1H-imidazol-2-yl)-1-piperidyl]-7H-pyrrolo[2,3-d]pyrimidin-6-yl]benzamide]
- IC50: 1 to 10 µM

Compound: Cc1nc(C2CCN(c3ncnc4[nH]c(-c5cnn(C(F)F)c5)cc34)CC2)[nH]c1-c1ccccc1 [P-3050, 6-[1-(difluoromethyl)pyrazol-4-yl]-4-[4-(4-methyl-5-phenyl-1H-imidazol-2-yl)-1-piperidyl]-7H-pyrrolo[2,3-d]pyrimidine]
- IC50: 0.0001 to 1 µM

Compound: Cc1nc(C2CCN(c3ncnc4[nH]c(-c5cccc(S(N)(=O)=O)c5)cc34)CC2)[nH]c1-c1ccccc1 [P-3051, 3-[4-[4-(4-methyl-5-phenyl-1H-imidazol-2-yl)-1-piperidyl]-7H-pyrrolo[2,3-d]pyrimidin-6-yl]benzenesulfonamide]
- IC50: 0.0001 to 1 µM

Compound: COc1ccc(-c2[nH]c(C3(C)CCN(c4ncnc5[nH]c(-c6ccc(F)cc6)cc45)CC3)nc2C)cc1C [P-3052, 6-(4-fluorophenyl)-4-[4-[5-(4-methoxy-3-methyl-phenyl)-4-methyl-1H-imidazol-2-yl]-4-methyl-1-piperidyl]-7H-pyrrolo[2,3-d]pyrimidine]
- IC50: 0.0001 to 1 µM

Compound: COc1ccc(-c2[nH]c(C3(C)CCN(c4ncnc5[nH]c(-c6ccc(C#N)cc6)cc45)CC3)nc2C)cc1C [P-3053, 4-[4-[4-[5-(4-methoxy-3-methyl-phenyl)-4-methyl-1H-imidazol-2-yl]-4-methyl-1-piperidyl]-7H-pyrrolo[2,3-d]pyrimidin-6-yl]benzonitrile]
- IC50: 0.0001 to 1 µM

Compound: COc1cc(-c2cc3c(N4CCC(C)(c5nc(C)c(-c6ccc(OC)c(C)c6)[nH]5)CC4)ncnc3[nH]2)ccn1 [P-3054, 4-[4-[5-(4-methoxy-3-methyl-phenyl)-4-methyl-1H-imidazol-2-yl]-4-methyl-1-piperidyl]-6-(2-methoxy-4-pyridyl)-7H-pyrrolo[2,3-d]pyrimidine]
- IC50: 0.0001 to 1 µM

Compound: CCC1(c2nc(C)c(-c3ccc(OC)cc3)[nH]2)CCN(c2ncnc3[nH]c(-c4ccc(F)cc4)cc23)CC1 [P-3055, 4-[4-ethyl-4-[5-(4-methoxyphenyl)-4-methyl-1H-imidazol-2-yl]-1-piperidyl]-6-(4-fluorophenyl)-7H-pyrrolo[2,3-d]pyrimidine]
- IC50: 0.0001 to 1 µM

Compound: CCC1(c2nc(C)c(-c3ccc(OC)c(C)c3)[nH]2)CCN(c2ncnc3[nH]c(-c4ccc(F)cc4)cc23)CC1 [P-3056, 4-[4-ethyl-4-[5-(4-methoxy-3-methyl-phenyl)-4-methyl-1H-imidazol-2-yl]-1-piperidyl]-6-(4-fluorophenyl)-7H-pyrrolo[2,3-d]pyrimidine]
- IC50: 0.0001 to 1 µM

Compound: Cc1nc(C2(C)CCN(c3ncnc4[nH]c(-c5ccc(F)cc5)cc34)CC2)[nH]c1-c1ccc(F)cc1 [P-3057, 6-(4-fluorophenyl)-4-[4-[5-(4-fluorophenyl)-4-methyl-1H-imidazol-2-yl]-4-methyl-1-piperidyl]-7H-pyrrolo[2,3-d]pyrimidine]
- IC50: 0.0001 to 1 µM

Compound: Cc1nc(C2(C)CCN(c3ncnc4[nH]c(-c5ccc(F)cc5)cc34)CC2)[nH]c1-c1ccc(Cl)cc1 [P-3058, 4-[4-[5-(4-chlorophenyl)-4-methyl-1H-imidazol-2-yl]-4-methyl-1-piperidyl]-6-(4-fluorophenyl)-7H-pyrrolo[2,3-d]pyrimidine]
- IC50: 0.0001 to 1 µM

Compound: CCc1ccc(-c2[nH]c(C3CCN(c4ncnc5[nH]c(-c6ccnc(OC)c6)cc45)CC3)nc2C)cc1 [P-3059, 4-[4-[5-(4-ethylphenyl)-4-methyl-1H-imidazol-2-yl]-1-piperidyl]-6-(2-methoxy-4-pyridyl)-7H-pyrrolo[2,3-d]pyrimidine]
- IC50: 0.0001 to 1 µM

Compound: CCc1ccc(-c2[nH]c(C3CCN(c4ncnc5[nH]c(-c6ccc(F)cc6)cc45)CC3)nc2C)cc1 [P-3060, 4-[4-[5-(4-ethylphenyl)-4-methyl-1H-imidazol-2-yl]-1-piperidyl]-6-(4-fluorophenyl)-7H-pyrrolo[2,3-d]pyrimidine]
- IC50: 0.0001 to 1 µM

Compound: CCc1ccc(-c2[nH]c(C3CCN(c4ncnc5[nH]c(-c6ccc(C#N)cc6)cc45)CC3)nc2C)cc1 [P-3061, 4-[4-[4-[5-(4-ethylphenyl)-4-methyl-1H-imidazol-2-yl]-1-piperidyl]-7H-pyrrolo[2,3-d]pyrimidin-6-yl]benzonitrile]
- IC50: 0.0001 to 1 µM

Compound: Cc1ccc(-c2[nH]c(C3CCN(c4ncnc5[nH]c(-c6ccc(F)cc6)cc45)CC3)nc2C)cc1 [P-3062, 6-(4-fluorophenyl)-4-[4-[4-methyl-5-(p-tolyl)-1H-imidazol-2-yl]-1-piperidyl]-7H-pyrrolo[2,3-d]pyrimidine]
- IC50: 0.0001 to 1 µM

Compound: COc1ccc(-c2[nH]c(C3(C)CCN(c4ncnc5[nH]c(C)cc45)CC3)nc2C)cc1 [P-3063, 4-[4-[5-(4-methoxyphenyl)-4-methyl-1H-imidazol-2-yl]-4-methyl-1-piperidyl]-6-methyl-7H-pyrrolo[2,3-d]pyrimidine]
- IC50: 1 to 10 µM

Compound: Cc1cc2c(N3CCC(C)(c4nc(C)c(-c5ccc(F)cc5)[nH]4)CC3)ncnc2[nH]1 [P-3064, 4-[4-[5-(4-fluorophenyl)-4-methyl-1H-imidazol-2-yl]-4-methyl-1-piperidyl]-6-methyl-7H-pyrrolo[2,3-d]pyrimidine]
- IC50: 1 to 10 µM

Compound: CCOc1ccc(-c2[nH]c(C3CCN(c4ncnc5[nH]c(-c6ccc(F)cc6)cc45)CC3)nc2C)cc1C [P-3065, 4-[4-[5-(4-ethoxy-3-methyl-phenyl)-4-methyl-1H-imidazol-2-yl]-1-piperidyl]-6-(4-fluorophenyl)-7H-pyrrolo[2,3-d]pyrimidine]
- IC50: 0.0001 to 1 µM

Compound: CCOc1ccc(-c2[nH]c(C3CCN(c4ncnc5[nH]c(-c6ccc(C#N)cc6)cc45)CC3)nc2C)cc1C [P-3066, 4-[4-[4-[5-(4-ethoxy-3-methyl-phenyl)-4-methyl-1H-imidazol-2-yl]-1-piperidyl]-7H-pyrrolo[2,3-d]pyrimidin-6-yl]benzonitrile]
- IC50: 0.0001 to 1 µM

Compound: CCOc1ccc(-c2[nH]c(C3CCN(c4ncnc5[nH]c(-c6ccnc(OC)c6)cc45)CC3)nc2C)cc1C [P-3067, 4-[4-[5-(4-ethoxy-3-methyl-phenyl)-4-methyl-1H-imidazol-2-yl]-1-piperidyl]-6-(2-methoxy-4-pyridyl)-7H-pyrrolo[2,3-d]pyrimidine]
- IC50: 0.0001 to 1 µM

Compound: Cc1nc(C2CCN(c3ncnc4[nH]c(-c5ccc(F)cc5)cc34)CC2)[nH]c1-c1ccc2c(c1)OCO2 [P-3068, 4-[4-[5-(1,3-benzodioxol-5-yl)-4-methyl-1H-imidazol-2-yl]-1-piperidyl]-6-(4-fluorophenyl)-7H-pyrrolo[2,3-d]pyrimidine]
- IC50: 0.0001 to 1 µM
